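Grown in 96-well plates, cells were treated for 48 hours with each compound at five concentrations. Insufficient inhibition: endpoint recorded as highest concentration tested. At the GI50, growth is halved. TGI denotes the concentration required for complete inhibition of growth.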
Legend:
Test in all cases: NCI tumour cell line growth inhibition, 48 h
[1] = test system: NCI/ADR-RES ovarian
[2] = test system: NCI-H460 lung
[3] = test system: SNB-75 CNS
[4] = test system: IGROV1 ovarian
[5] = test system: DU-145 prostate
[6] = test system: HOP-92 NSCLC
[7] = test system: T-47D breast
[8] = test system: A498 renal
[9] = test system: SK-MEL-5 melanoma
[10] = test system: M14 melanoma
[11] = test system: MDA-MB-435
[12] = test system: OVCAR-5 ovarian
[13] = test system: RPMI-8226 leukemia
[14] = test system: SK-MEL-2 melanoma
[15] = test system: RXF 393 renal
[16] = test system: SK-MEL-28 melanoma
[17] = test system: HS 578T breast
[18] = test system: KM12 colon
[19] = test system: MDA-MB-231 breast
[20] = test system: HT29 colon
[21] = test system: LOX IMVI melanoma
[22] = test system: OVCAR-8 ovarian
[23] = test system: SF-295 CNS
[24] = test system: CAKI-1 renal
[25] = test system: NCI-H522 lung
[26] = test system: MALME-3M melanoma
[27] = test system: PC-3 prostate
[28] = test system: OVCAR-4 ovarian
[29] = test system: MCF7 breast
[30] = test system: HL-60(TB) leukemia
[31] = test system: EKVX NSCLC
[32] = test system: BT-549 breast
[33] = test system: UO-31 renal
[34] = test system: ACHN renal
[35] = test system: HCT-15 colon
[36] = test system: NCI-H226 lung
[37] = test system: SK-OV-3 ovarian
[38] = test system: COLO 205 colon
[39] = test system: MOLT-4 leukemia
[40] = test system: K-562 leukemia
[41] = test system: SF-539 CNS
[42] = test system: UACC-62 melanoma
[43] = test system: A549 NSCLC
[44] = test system: OVCAR-3 ovarian
[45] = test system: HOP-62 NSCLC
[46] = test system: CCRF-CEM leukemia
[47] = test system: SR leukemia
[48] = test system: SW-620 colon
[49] = test system: SNB-19 CNS
[50] = test system: UACC-257 melanoma
[51] = test system: TK-10 renal
[52] = test system: SF-268 CNS
[53] = test system: U251 CNS
[54] = test system: HCT-116 colon
[55] = test system: SN12C renal
[56] = test system: MDA-MB-468 breast
[57] = test system: HCC-2998 colon
[58] = test system: NCI-H23 lung
[59] = test system: 786-0 renal

With O=C1CCC(N2Cc3cc(CC(=O)Nc4ccc(N5CCCCC5)cc4)ccc3C2=O)C(=O)N1 (centres undefined) the GI50 [1] was 4.34 µM, the TGI [1] was > 100 µM and the GI50 [2] was > 100 µM. For the same molecule, the TGI [2] was > 100 µM, the GI50 [3] was 0.0288 µM and the TGI [3] was 99.2 µM. The GI50 [4] was < 0.0104 µM, the TGI [4] was > 100 µM and the GI50 [5] was > 81.6 µM. The TGI [5] was > 100 µM, the GI50 [6] was < 0.01 µM and the TGI [6] was > 100 µM. For the same molecule, the GI50 [7] was < 0.01 µM, the TGI [7] was > 100 µM and the GI50 [8] was 0.164 µM. The TGI [8] was > 85.2 µM, the GI50 [9] was 1.76 µM and the TGI [9] was > 100 µM. The GI50 [10] was 0.432 µM, the TGI [10] was > 100 µM and the GI50 [11] was > 100 µM. For the same molecule, the TGI [11] was > 100 µM, the GI50 [12] was 0.24 µM and the TGI [12] was > 100 µM. The GI50 [13] was 20.1 µM, the TGI [13] was > 100 µM and the GI50 [14] was 2.16 µM. For the same molecule, the TGI [14] was > 100 µM, the GI50 [15] was 9.66 µM and the TGI [15] was > 100 µM. For the same molecule, the GI50 [16] was > 60.4 µM, the TGI [16] was > 100 µM and the GI50 [17] was < 0.0166 µM. The TGI [17] was > 100 µM, the GI50 [18] was 2.37 µM and the TGI [18] was > 100 µM. The GI50 [19] was < 0.01 µM, the GI50 [20] was 19 µM and the TGI [20] was > 100 µM. For the same molecule, the GI50 [21] was > 100 µM, the TGI [21] was > 100 µM and the GI50 [22] was < 0.01 µM. The TGI [22] was > 100 µM, the GI50 [23] was > 96.3 µM and the TGI [23] was > 100 µM. The GI50 [24] was 2.06 µM, the TGI [24] was > 100 µM and the GI50 [25] was > 72.9 µM. For the same molecule, the TGI [25] was > 100 µM, the GI50 [26] was < 0.01 µM and the TGI [26] was 0.0124 µM. For the same molecule, the GI50 [27] was < 0.0108 µM, the TGI [27] was > 100 µM and the GI50 [28] was 23.4 µM. For the same molecule, the TGI [28] was > 100 µM, the GI50 [29] was 12.4 µM and the TGI [29] was > 100 µM. The GI50 [30] was < 0.01 µM, the GI50 [31] was > 34.5 µM and the TGI [31] was > 100 µM. The GI50 [32] was < 0.01 µM, the TGI [32] was 0.927 µM and the GI50 [33] was 0.0782 µM. The TGI [33] was > 100 µM, the GI50 [34] was > 100 µM and the TGI [34] was > 100 µM. The GI50 [35] was 0.0368 µM, the TGI [35] was > 100 µM and the GI50 [36] was 0.0398 µM. For the same molecule, the TGI [36] was 23.3 µM, the GI50 [37] was 12.9 µM and the TGI [37] was > 100 µM. The GI50 [38] was 0.0118 µM, the TGI [38] was > 100 µM and the GI50 [39] was < 0.01 µM. The TGI [39] was > 100 µM, the GI50 [40] was > 56.1 µM and the TGI [40] was > 100 µM. For the same molecule, the GI50 [41] was 25.1 µM, the TGI [41] was > 100 µM and the GI50 [42] was 36.3 µM. For the same molecule, the TGI [42] was > 100 µM, the GI50 [43] was 24.2 µM and the TGI [43] was > 100 µM. For the same molecule, the GI50 [44] was 23.2 µM, the TGI [44] was > 100 µM and the GI50 [45] was < 0.01 µM. The GI50 [46] was < 0.01 µM, the GI50 [47] was > 100 µM and the TGI [47] was > 100 µM. The GI50 [48] was < 0.0144 µM, the TGI [48] was > 100 µM and the GI50 [49] was 0.0594 µM. For the same molecule, the TGI [49] was > 100 µM, the GI50 [50] was > 100 µM and the TGI [50] was > 100 µM. For the same molecule, the GI50 [51] was 1.58 µM, the TGI [51] was > 100 µM and the GI50 [52] was 40.7 µM. For the same molecule, the TGI [52] was > 100 µM, the GI50 [53] was 46.8 µM and the TGI [53] was > 100 µM. For the same molecule, the GI50 [54] was > 100 µM, the TGI [54] was > 100 µM and the GI50 [55] was 0.632 µM. The TGI [55] was > 90.8 µM, the GI50 [56] was < 0.01 µM and the TGI [56] was < 0.0282 µM. The GI50 [57] was 0.0174 µM, the TGI [57] was > 100 µM and the GI50 [58] was > 100 µM. The TGI [58] was > 100 µM, the GI50 [59] was 1.43 µM and the TGI [59] was > 100 µM.
